Measured values as given in the NIST ThermoML archive (doi:10.1021/acs.jced.8b01157).

Test: mn = molality of the nth substance listed, in mol/kg
Details: 100 kPa, Liquid; for speed of sound: Frequency=3 MHz, Single path-length method; for mass density: Vibrating tube method

N.N.O=P(O)(O)O [diammonium hydrogen phosphate] + O
Details	mass density, 288.15 K [kg/m3]	mass density, 298.15 K [kg/m3]	mass density, 308.15 K [kg/m3]	mass density, 318.15 K [kg/m3]	speed of sound, 288.15 K [m/s]	speed of sound, 298.15 K [m/s]	speed of sound, 308.15 K [m/s]	speed of sound, 318.15 K [m/s]
m1 = 0.5	1032.61	1030.71	1026.1	1022.85	1517.7	1544.3	1564.8	1581.3
m1 = 1	1066.4	1064.03	1060.22	1055.59	1572	1597.9	1614.1	1628.3
m1 = 1.5	1097.53	1095.18	1090.11	1086.19	1629.6	1650.4	1664.4	1676.6

N.O=P(O)(O)O [ammonium dihydrogen phosphate] + O
Details	mass density, 288.15 K [kg/m3]	mass density, 298.15 K [kg/m3]	mass density, 308.15 K [kg/m3]	mass density, 318.15 K [kg/m3]	speed of sound, 288.15 K [m/s]	speed of sound, 298.15 K [m/s]	speed of sound, 308.15 K [m/s]	speed of sound, 318.15 K [m/s]
m1 = 0.5	1030	1026.45	1023.33	1019.74	1507.3	1534.9	1555.9	1570.9
m1 = 1	1057.62	1054.22	1050.98	1046.48	1544.3	1569.7	1588.9	1602.6
m1 = 1.5	1082.56	1079.6	1075.85	1071.76	1579	1602.4	1619.9	1631.1
